The record followed here is patent publication US20220169654A1, “New Organic Compounds” (Servier Pharmaceuticals LLC, priority 2020, published 2022).

This test concerns the target T1, MAT2A homodimer (Homo sapiens, UniProt P31153).
T1 construct: inferred from Ni sepharose purification with imidazole elution; made in house; host or cells: Sf9 insect cells, baculovirus (Bac to Bac, pFASTBAC1)
The test is described as follows: MAT2A inhibition (biochemical, liberated phosphate, PiColorLock Gold). To be noted: recombinant MAT2A homodimer; IC50 bin with Max Inh.; read-out: Enzyme Inhibition Bin. The protocol: Mat2A protein was expressed by recombinant baculovirus in SF9 infected cells using the Bac to Bac system cloned into the pFASTBAC1 vector (Invitrogen, Carlsbad, Calif.). Recombinant MAT2A was isolated from the cell lysate of 150 g of infected cells using HP Ni sepharose column chromatography. Recombinant MAT2A homodimer was eluted with 250 and 500 mM imidazole, and fractions containing MAT2A were identified by sodium dodecyl sulfate polyacrylamide gel electrophoresis and pooled.
For determination of the inhibitory potency of compounds against the MAT2A homodimer, protein was diluted to 4 μg/mL in assay buffer (50 mM Tris, pH 8.0, 50 mM KCl, 15 mM MgCl2, 0.3 mM EDTA, 0.005% [w/v] bovine serum albumin [BSA]). Test compound was prepared in 100% dimethyl sulfoxide (DMSO) at 50× the desired final concentration. A 1 μL volume of compound dilution was added to 40 μL of enzyme dilution and the mixture was allowed to equilibrate for 60 minutes at 25° C. The enzymatic assay was initiated by the addition of 10 μL of substrate mix (500 μM ATP, pH 7.0, 400 μM L-methionine in 1× assay buffer), and the mixture was incubated for a further 60 minutes at 25° C. The reaction was halted and the liberated phosphate released by the enzyme in stoichiometric amounts by the production of S-adenosyl methionine (SAM) was measured using the PiColorLock Gold kit (Innova Biosciences, UK). Absolute product amounts were determined by comparison to a standard curve of potassium phosphate buffer, pH 8.0. The compounds were also tested in a secondary assay utilizing 1 μg/mL MAT2A and incubated for 5 hours at 25° C. before halting and processing as above.
Specific compounds disclosed herein were tested in the foregoing assay and they were determined to inhibit MAT2A with an IC50. See, Table 1 below.

T1 sequence (P31153 whole entry): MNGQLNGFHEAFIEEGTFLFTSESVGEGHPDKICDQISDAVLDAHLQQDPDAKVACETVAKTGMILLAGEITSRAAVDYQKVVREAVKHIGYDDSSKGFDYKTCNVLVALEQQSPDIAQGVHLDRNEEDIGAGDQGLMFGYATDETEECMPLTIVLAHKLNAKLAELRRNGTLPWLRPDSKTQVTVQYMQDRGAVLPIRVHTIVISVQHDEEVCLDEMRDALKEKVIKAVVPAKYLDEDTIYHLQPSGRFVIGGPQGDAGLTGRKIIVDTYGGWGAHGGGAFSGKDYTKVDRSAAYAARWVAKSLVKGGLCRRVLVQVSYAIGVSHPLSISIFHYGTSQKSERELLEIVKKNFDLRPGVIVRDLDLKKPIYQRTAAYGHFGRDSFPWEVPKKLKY

For the compound `CNS(=O)(=O)c1cn(CC2CC2)c2c(-c3ccc(C4CC4)cc3)c(=O)n(-c3ccc4nn(C)cc4c3)nc12` [Example 179, 5-(cyclopropylmethyl)-4-(4-cyclopropylphenyl)-N-methyl-2-(2-methyl-2H-indazol-5-yl)-3-oxo-3,5-dihydro-2H-pyrrolo[3,2-c]pyridazine-7-sulfonamide], the IC50 was more than 10 µM.

As for `CN(C)C(=O)c1cn(CC2CC2)c2c(-c3ccc(C4CC4)nc3)c(=O)n(-c3ccc4nn(C)cc4c3)nc12` [Example 164, 5-(cyclopropylmethyl)-4-(6-cyclopropylpyridin-3-yl)-N,N-dimethyl-2-(2-methyl-2H-indazol-5-yl)-3-oxo-3,5-dihydro-2H-pyrrolo[3,2-c]pyridazine-7-carboxamide], the IC50 is less than 1 µM.

For the compound `CNS(=O)(=O)c1cn(CC2CC2)c2c(-c3ccc(C4CC4)nc3)c(=O)n(-c3ccc4nn(C)cc4c3)nc12` [Example 181, 5-(cyclopropylmethyl)-4-(6-cyclopropylpyridin-3-yl)-N-methyl-2-(2-methyl-2H-indazol-5-yl)-3-oxo-3,5-dihydro-2H-pyrrolo[3,2-c]pyridazine-7-sulfonamide], the IC50 was more than 10 µM.

With `Cc1c(C#N)c2nn(-c3ccc4nn(C)cc4c3)c(=O)c(-c3ccc(C4CC4)nc3)c2n1CC1CC1` [Example 265, 5-(cyclopropylmethyl)-4-(6-cyclopropylpyridin-3-yl)-6-methyl-2-(2-methyl-2H-indazol-5-yl)-3-oxo-2H,3H,5H-pyrrolopyridazine-7-carbonitrile], the IC50 was more than 10 µM.

Regarding `Cn1cc2cc(-n3nc4ccn(CC5CC5)c4c(-c4cncc(C(F)(F)F)c4)c3=O)ccc2n1` [Example 125, 5-(cyclopropylmethyl)-2-(2-methyl-2H-indazol-5-yl)-4-(5-(trifluoromethyl)pyridin-3-yl)-2,5-dihydro-3H-pyrrolo[3,2-c]pyridazin-3-one], the IC50 is more than 10 µM.

`CN1CC=C(n2nc3ccn(CC4CC4)c3c(-c3ccc(C4CC4)nc3)c2=O)CC1` [Example 232, 5-(cyclopropylmethyl)-4-(6-cyclopropylpyridin-3-yl)-2-(1-methyl-1,2,3,6-tetrahydropyridin-4-yl)-2,5-dihydro-3H-pyrrolo[3,2-c]pyridazin-3-one]: the IC50 was more than 10 µM.

On to `Cn1cc2cc(-n3nc4c(S(C)(=O)=O)cn(CC5CC5)c4c(-c4ccc(C5CC5)nc4)c3=O)ccc2n1` [Example 261, 5-(cyclopropylmethyl)-4-(6-cyclopropylpyridin-3-yl)-2-(2-methyl-2H-indazol-5-yl)-7-(methylsulfonyl)-2,5-dihydro-3H-pyrrolo[3,2-c]pyridazin-3-one], for which the IC50 was less than 1 µM.

In the case of `Cc1ccc(-c2c(=O)n(-c3ccc4nn(C)cc4c3)nc3c(C#N)c(C)n(CC4CC4)c23)cn1` [Example 266, 5-(cyclopropylmethyl)-6-methyl-2-(2-methyl-2H-indazol-5-yl)-4-(6-methylpyridin-3-yl)-3-oxo-2H,3H,5H-pyrrolopyridazine-7-carbonitrile], the IC50 was more than 10 µM.

Turning to `Cn1cc2cc(-n3nc4c(S(C)(=O)=O)cn(CC5CC5)c4c(-c4ccc(C5CC5)cc4)c3=O)ccc2n1` [Example 262, 5-(cyclopropylmethyl)-4-(4-cyclopropylphenyl)-2-(2-methyl-2H-indazol-5-yl)-7-(methylsulfonyl)-2,5-dihydro-3H-pyrrolo[3,2-c]pyridazin-3-one], the IC50 was less than 1 µM.

On to `Cn1cc2cc(-n3nc4c(c(CC5CC5)cn4C)c(-c4ccc(OC(F)F)cc4)c3=O)ccc2n1` [Example 272, 5-(cyclopropylmethyl)-4-(4-(difluoromethoxy)phenyl)-7-methyl-2-(2-methyl-2H-indazol-5-yl)-2,7-dihydro-3H-pyrrolo[2,3-c]pyridazin-3-one], for which the IC50 is less than 0.1 µM.

As for `CC(C)Cn1cc(C#N)c2nn(-c3ccc4nn(C)cc4c3)c(=O)c(-c3ccc(C4CC4)nc3)c21` [Example 121, 4-(6-cyclopropylpyridin-3-yl)-5-isobutyl-2-(2-methyl-2H-indazol-5-yl)-3-oxo-3,5-dihydro-2H-pyrrolo[3,2-c]pyridazine-7-carbonitrile], the IC50 was less than 1 µM.

For `CC(C)n1cc(C#N)c2nn(-c3ccc4nn(C)cc4c3)c(=O)c(-c3ccc(C4CC4)nc3)c21` [Example 146, 4-(6-cyclopropylpyridin-3-yl)-5-isopropyl-2-(2-methyl-2H-indazol-5-yl)-3-oxo-3,5-dihydro-2H-pyrrolo[3,2-c]pyridazine-7-carbonitrile], the IC50 is less than 1 µM.

Regarding `Cn1cc2cc(-n3nc4ccn(CC5CC5)c4c(-c4cncc(Cl)c4)c3=O)ccc2n1` [Example 126, 4-(5-chloropyridin-3-yl)-5-(cyclopropylmethyl)-2-(2-methyl-2H-indazol-5-yl)-2,5-dihydro-3H-pyrrolo[3,2-c]pyridazin-3-one], the IC50 was less than 1 µM.

In the case of `CNS(=O)(=O)c1cn(CC2CC2)c2c(-c3ccc(OC(F)F)cc3)c(=O)n(-c3ccc4nn(C)cc4c3)nc12` [Example 183, 5-(cyclopropylmethyl)-4-(4-(difluoromethoxy)phenyl)-N-methyl-2-(2-methyl-2H-indazol-5-yl)-3-oxo-3,5-dihydro-2H-pyrrolo[3,2-c]pyridazine-7-sulfonamide], the IC50 was more than 10 µM.

With `CNS(=O)(=O)c1cn(CC2CC2)c2c(-c3ccc(C)nc3)c(=O)n(-c3ccc4nn(C)cc4c3)nc12` [Example 182, 5-(cyclopropylmethyl)-N-methyl-2-(2-methyl-2H-indazol-5-yl)-4-(6-methylpyridin-3-yl)-3-oxo-3,5-dihydro-2H-pyrrolo[3,2-c]pyridazine-7-sulfonamide], the IC50 was more than 10 µM.
